According to patent US10526323B2, “Indazole and azaindazole substituted compounds as mGluR4 allosteric potentiators, compositions, and methods of treating neurological dysfunction” (Vanderbilt University, priority 2015, dated 2020):

biological target: mGluR4 (UniProt Q14833); test: mGluR4 potentiation assay: increase in response to an EC20 concentration of agonist (species not given); assay type: cell-based; settings: EC50 for potentiation of mGluR4; table does not state human or rat
Description: The disclosed compounds and compositions can be evaluated for their ability to act as a potentiator of metabotropic glutamate receptor activity, in particular mGluR4 activity, by any suitable known methodology known in the art. For example, Chinese Hamster Ovary (CHO) cells transfected with human mGluR4 or […] co-transfected with rat mGluR4 and the G-protein regulated Inwardly Rectifying Potassium channel (GIRK) were plated in clear bottom assay plates for assay in a Hamamatsu FDSS Fluorometric Plate Reader. The cells were loaded with either a Ca2+-sensitive fluorescent dye or the thallium responsive dye and the plates were washed and placed into a suitable kinetic plate reader. For human mGluR4 assays, a fluorescence baseline was established for 3-5 seconds, the disclosed compounds were then added to the cells, and the response in cells was measured. Approximately two and a half minutes later, a concentration of mGluR4 orthosteric agonist (e.g. glutamate or L-AP4) eliciting approximately 20% (EC20) of the maximal agonist response was added to the cells, and the response was measured. Two minutes later, a concentration of mGluR4 agonist (e.g. glutamate or L-AP4) eliciting 80% (EC80) of the maximal agonist response was added to the cells, and the response was measured. For rat mGluR4/GIRK experiments, a baseline was established for approximately five seconds, disclosed compounds were added, and either an EC20 or EC80 concentration of agonist was added approximately two and one half minutes later. Potentiation of the agonist response of mGluR4 by the disclosed compounds was observed as an increase in response to the EC20 concentration of agonist in the presence of compound compared to the response to agonist in the absence of compound. Similarly, antagonism of the agonist response of mGluR4 by the disclosed compounds was observed as a decrease in response to the EC80 concentration of agonist in the presence of compound compared to the response to agonist in the absence of compound.
The above described assay operated in two modes. In the first mode, a range of concentrations of the disclosed compounds are added to cells, followed by a single fixed concentration of agonist. If the compound acts as a potentiator, an EC50 value for potentiation and a maximum extent of potentiation by the compound at this concentration of agonist is determined by non-linear curve fitting. If the compound acts as a noncompetitive antagonist, an IC50 value is determined by non-linear curve fitting. In the second mode, several fixed concentrations of the disclosed compounds are added to various wells on a plate, followed by a range in concentrations of agonist for each concentration of disclosed compound. The EC50 values for the agonist at each concentration of compound are determined by non-linear curve fitting. A decrease in the EC50 value of the agonist with increasing concentrations of the sample compound (a leftward shift of the agonist concentration-response curve) is an indication of the degree of mGluR4 potentiation at a given concentration of the sample compound. A decrease in the maximal response of the agonist with increasing concentrations of the sample compounds, with or without a rightward shift in agonist potency, is an indication of the degree of noncompetitive antagonism at mGluR4. The second mode also indicates whether the sample compounds also affect the maximum response to mGluR4 to agonists.
These compounds are positive allosteric modulators (potentiators) of human and rat mGluR4 and were selective for mGluR4 compared to the other seven subtypes of metabotropic glutamate receptors.

SMILES | EC50 [nM]
Cc1nn(CC2CC(c3ncccc3F)=NO2)c2ccc(Nc3n[nH]c4cccnc34)cc12 (stereo not drawn) [Example 115, N-(1-((3-(3-fluoropyridin-2-yl)-4,5-dihydroisoxazol-5-yl)methyl)-3-methyl-1H-indazol-5-yl)-1H-pyrazolo[4,3-b]pyridin-3-amine] | 135
Cc1nn(CC2CC2)c2ccc(Nc3n[nH]c4cccnc34)cc12 [Example 111, N-(1-(cyclopropylmethyl)-3-methyl-1H-indazol-5-yl)-1H-pyrazolo[4,3-b]pyridin-3-amine] | 36
Cn1nc(OCC2CCCCO2)c2ccc(Nc3n[nH]c4cccnc34)cc21 (stereo not drawn) [Example 181, N-(1-methyl-3-((tetrahydro-2H-pyran-2-yl)methoxy)-1H-indazol-6-yl)-1H-pyrazolo[4,3-b]pyridin-3-amine] | 87
Cn1ncc2ncc(Nc3n[nH]c4cccnc34)cc21 [Example 147, N-(1-methyl-1H-pyrazolo[4,3-b]pyridin-6-yl)-1H-pyrazolo[4,3-b]pyridin-3-amine] | 1260
Cn1nc(OC2CCOCC2)c2ccc(Nc3n[nH]c4cccnc34)cc21 [Example 225, N-(1-methyl-3-((tetrahydro-2H-pyran-4-yl)oxy)-1H-indazol-6-yl)-1H-pyrazolo[4,3-b]pyridin-3-amine] | 46
Cn1nc(S(C)(=O)=O)c2ccc(Nc3n[nH]c4cccnc34)cc21 [Example 186, N-(1-methyl-3-(methylsulfonyl)-1H-indazol-6-yl)-1H-pyrazolo[4,3-b]pyridin-3-amine] | 1880
Cn1nc(C(=O)N2CC[C@@H](F)C2)c2ccc(Nc3n[nH]c4cccnc34)cc21 [Example 168, [(3R)-3-fluoropyrrolidin-1-yl]-[1-methyl-6-(1H-pyrazolo[4,3-b]pyridin-3-ylamino)indazol-3-yl]methanone] | 903
COc1ccc2[nH]nc(Nc3ccc4c(C5CC5)nn(C)c4c3)c2c1 [Example 47, N-(3-cyclopropyl-1-methyl-1H-indazol-6-yl)-5-methoxy-1H-indazol-3-amine] | > 10000
Cc1nn(C2CCC2)c2ccc(Nc3n[nH]c4cccnc34)cc12 [Example 107, N-(1-cyclobutyl-3-methyl-1H-indazol-5-yl)-1H-pyrazolo[4,3-b]pyridin-3-amine] | 374
Cc1nn(C2CCCCC2)c2ncc(Nc3n[nH]c4cccnc34)cc12 [Example 260, 1-cyclohexyl-3-methyl-N-(1H-pyrazolo[4,3-b]pyridin-3-yl)pyrazolo[3,4-b]pyridin-5-amine] | 440
Cc1nn(CC2CC(F)(F)C2)c2ccc(Nc3n[nH]c4cccnc34)cc12 [Example 288, N-(1-((3,3-difluorocyclobutyl)methyl)-3-methyl-1H-indazol-5-yl)-1H-pyrazolo[4,3-b]pyridin-3-amine] | 680
CCC(C)n1nc(C)c2cc(Nc3n[nH]c4cccnc34)ccc21 (stereo not drawn) [Example 102, N-(1-(sec-butyl)-3-methyl-1H-indazol-5-yl)-1H-pyrazolo[4,3-b]pyridin-3-amine] | 367
c1cnc2c(Nc3ccc4c(cnn4CC4CCC4)c3)n[nH]c2c1 [Example 80, N-(1-(cyclobutylmethyl)-1H-indazol-5-yl)-1H-pyrazolo[4,3-b]pyridin-3-amine] | 167
c1ccc2c(Nc3ccc4c(cnn4CC4CCC4)c3)n[nH]c2c1 [Example 86, N-(1-(cyclobutylmethyl)-1H-indazol-5-yl)-1H-indazol-3-amine] | 51.4
[2H]C([2H])(C)n1nc(C)c2cc(Nc3n[nH]c4cccnc34)ccc21 [Example 124, N-(1-(ethyl-1,1-d2)-3-methyl-1H-indazol-5-yl)-1H-pyrazolo[4,3-b]pyridin-3-amine] | 109
Cn1nc(S(C)(=O)=O)c2ccc(Nc3n[nH]c4nccnc34)cc21 [Example 187, N-(1-methyl-3-(methylsulfonyl)-1H-indazol-6-yl)-1H-pyrazolo[3,4-b]pyrazin-3-amine] | 2360
Cn1nc(OCCN2CCOCC2)c2ccc(Nc3n[nH]c4cccnc34)cc21 [Example 217, N-[1-methyl-3-(2-morpholinoethoxy)indazol-6-yl]-1H-pyrazolo[4,3-b]pyridin-3-amine] | 238

SMILES | EC50 [nM]
Cc1nn(C2CC2)c2ncc(Nc3n[nH]c4cccnc34)cc12 [Example 263, 1-cyclopropyl-3-methyl-N-(1H-pyrazolo[4,3-b]pyridin-3-yl)pyrazolo[3,4-b]pyridin-5-amine] | 410
[2H]C([2H])([2H])n1nc(C2CC2)c2ccc(Nc3n[nH]c4nccnc34)cc21 [Example 22, N-(3-cyclopropyl-1-(methyl-d3)-1H-indazol-6-yl)-1H-pyrazolo[3,4-b]pyrazin-3-amine] | 10
Cc1nn(C(C)C)c2ncc(Nc3n[nH]c4ncccc34)cc12 [Example 267, N-(1-isopropyl-3-methyl-1H-pyrazolo[3,4-b]pyridin-5-yl)-1H-pyrazolo[3,4-b]pyridin-3-amine] | > 10000
Cn1nc(-c2ccncc2)c2ccc(Nc3n[nH]c4cccnc34)cc21 [Example 218, N-[1-methyl-3-(4-pyridyl)indazol-6-yl]-1H-pyrazolo[4,3-b]pyridin-3-amine] | 871
Cc1c2cc(Nc3n[nH]c4cccnc34)ccc2nn1C(C)C [Example 59, N-(2-isopropyl-3-methyl-2H-indazol-5-yl)-1H-pyrazolo[4,3-b]pyridin-3-amine] | > 10000
Cn1nc(C(=O)N2CCS(=O)(=O)CC2)c2ccc(Nc3n[nH]c4cccnc34)cc21 [Example 165, (1,1-dioxo-1,4-thiazinan-4-yl)-[1-methyl-6-(1H-pyrazolo[4,3-b]pyridin-3-ylamino)indazol-3-yl]methanone] | 801
[2H]C([2H])([2H])Oc1nn(C)c2cc(Nc3n[nH]c4cccnc34)ccc12 [Example 240, N-(3-(methoxy-d3)-1-methyl-1H-indazol-6-yl)-1H-pyrazolo[4,3-b]pyridin-3-amine] | 294
[2H]C([2H])([2H])n1nc(C2CC2)c2ccc(Nc3n[nH]c4cccnc34)cc21 [Example 23, N-(3-cyclopropyl-1-(methyl-d3)-1H-indazol-6-yl)-1H-pyrazolo[4,3-b]pyridin-3-amine] | 36
Cc1nn(CCCCN2CCCCC2)c2ccc(Nc3n[nH]c4cccnc34)cc12 [Example 283, N-(3-methyl-1-(4-(piperidin-1-yl)butyl)-1H-indazol-5-yl)-1H-pyrazolo[4,3-b]pyridin-3-amine] | 3510
Cc1nn(Cc2ccc3ccccc3n2)c2ccc(Nc3n[nH]c4cccnc34)cc12 [Example 125, N-(3-methyl-1-(quinolin-2-ylmethyl)-1H-indazol-5-yl)-1H-pyrazolo[4,3-b]pyridin-3-amine] | 1530
Cc1cc(Cn2nc3ccc(Nc4n[nH]c5cccnc45)cc3c2C)no1 [Example 70, N-(3-methyl-2-((5-methylisoxazol-3-yl)methyl)-2H-indazol-5-yl)-1H-pyrazolo[4,3-b]pyridin-3-amine] | 870
[2H]C([2H])([2H])n1nc(Cl)c2cc(Nc3n[nH]c4cccnc34)ccc21 [Example 282, N-(3-chloro-1-(methyl-d3)-1H-indazol-5-yl)-1H-pyrazolo[4,3-b]pyridin-3-amine] | > 10000
Cn1nc(C(=O)N2CCCC(F)C2)c2ccc(Nc3n[nH]c4cccnc34)cc21 (stereo not drawn) [Example 163, (3-fluoro-1-piperidyl)-[1-methyl-6-(1H-pyrazolo[4,3-b]pyridin-3-ylamino)indazol-3-yl]methanone] | 2210
CCC(F)(F)Cn1nc(C)c2cc(Nc3n[nH]c4ncccc34)ccc21 [Example 137, N-(1-(2,2-difluorobutyl)-3-methyl-1H-indazol-5-yl)-1H-pyrazolo[3,4-b]pyridin-3-amine] | 436
CCCn1nc(C)c2cc(Nc3n[nH]c4cccnc34)ccc21 [Example 113, N-(3-methyl-1-propyl-1H-indazol-5-yl)-1H-pyrazolo[4,3-b]pyridin-3-amine] | 123
COC(=O)Cn1nc(C)c2cc(Nc3n[nH]c4cccnc34)ccc21 [Example 118, methyl 2-(5-((1H-pyrazolo[4,3-b]pyridin-3-yl)amino)-3-methyl-1H-indazol-1-yl)acetate] | 867
